This assay addresses T1, human GPR119 (Homo sapiens, UniProt Q8TDV5).
T1 construct: expression vector for human GPR119 cDNA (Acc. No. NP_848566); expressed in transfected cells; Min-6/hGPR119
T1 sequence (Q8TDV5 1-335): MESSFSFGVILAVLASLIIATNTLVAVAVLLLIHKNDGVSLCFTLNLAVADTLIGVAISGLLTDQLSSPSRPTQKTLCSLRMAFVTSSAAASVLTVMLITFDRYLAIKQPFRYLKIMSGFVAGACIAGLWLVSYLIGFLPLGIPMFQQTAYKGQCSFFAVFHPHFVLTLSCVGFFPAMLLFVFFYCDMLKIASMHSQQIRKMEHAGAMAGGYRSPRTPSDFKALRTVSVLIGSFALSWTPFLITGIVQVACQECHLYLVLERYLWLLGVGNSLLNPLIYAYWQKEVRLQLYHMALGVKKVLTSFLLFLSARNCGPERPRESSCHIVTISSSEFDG
The experiment in a line: AlphaScreen cAMP assay in MIN6 cells stably transfected with human GPR119. It counts as cell-based. Particulars: Min-6/hGPR119 cells, 45 min at room temperature. The method in brief:
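cAMP accumulation quantified by AlphaScreen after 45 min compound stimulation at about 20 °C. Stimulation buffer: pH 7.4 HEPES saline with 0.5 mM IBMX, 0.1% BSA, 1% DMSO final. Cells: MIN6 stably transfected with human GPR119, 10000/well, cultured 24 h beforehand.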
`CC(C)(C)OC(=O)N1CCC(N(C(=O)c2cnc(-c3ccc(CC#N)cc3)nc2)C2CC2)CC1` [Example 78, 4-{[2-(4-Cyanomethyl-phenyl)-pyrimidine-5-carbonyl]-cyclopropyl-amino}-piperidine-1-carboxylic acid tert-butyl ester] came in with an EC50 of 9 nM. Under `CC(C)(C)OC(=O)N1CCC(N(C(=O)c2cnc(-c3ccc(NS(C)(=O)=O)cc3)nc2)C2CC2)CC1` [Example 79, 4-{Cyclopropyl-[2-(4-methanesulfonylamino-phenyl)-pyrimidine-5-carbonyl]-amino}-piperidine-1-carboxylic acid tert-butyl ester] stands 210 nM; under `CC(C)(C)OC(=O)N1CCC(N(C(=O)c2cnc(-c3ccc(S(C)(=O)=O)cc3)nc2)C2CC2)CC1` [Example 80, 4-{Cyclopropyl-[2-(4-methanesulfonyl-phenyl)-pyrimidine-5-carbonyl]-amino}-piperidine-1-carboxylic acid tert-butyl ester], 75 nM; under `CC(C)(C)OC(=O)N1CCC(N(C(=O)c2cnc(-c3ccc(CO)cc3)nc2)C2CC2)CC1` [Example 81, 4-{Cyclopropyl-[2-(4-hydroxymethyl-phenyl)-pyrimidine-5-carbonyl]-amino}-piperidine-1-carboxylic acid tert-butyl ester], 98 nM. Then `COc1ncc(-c2ncc(C(=O)N(C3CC3)C3CCN(C(=O)OC(C)(C)C)CC3)cn2)cn1` [Example 82, 4-[Cyclopropyl-(2′-methoxy-[2,5′]bipyrimidinyl-5-carbonyl)-amino]-piperidine-1-carboxylic acid tert-butyl ester], with 65 nM; and `CC(C)(C)OC(=O)N1CCC(N(C(=O)c2cnc(-c3ccc(C#N)nc3)nc2)C2CC2)CC1` [Example 83, 4-{[2-(6-Cyano-pyridin-3-yl)-pyrimidine-5-carbonyl]-cyclopropyl-amino}-piperidine-1-carboxylic acid tert-butyl ester], with 15 nM; and `CC(C)(C)OC(=O)N1CCC(N(C(=O)c2cnc(-c3ccc(N4CCOCC4)cc3)nc2)C2CC2)CC1` [Example 84, 4-{Cyclopropyl-[2-(4-morpholin-4-yl-phenyl)-pyrimidine-5-carbonyl]-amino}-piperidine-1-carboxylic acid tert-butyl ester], with 140 nM. Under `COc1cc(-c2ncc(C(=O)N(C3CC3)C3CCN(C(=O)OC(C)(C)C)CC3)cn2)ccn1` [Example 85, 4-{Cyclopropyl-[2-(2-methoxy-pyridin-4-yl)-pyrimidine-5-carbonyl]-amino}-piperidine-1-carboxylic acid tert-butyl ester] stands 46 nM; under `CCNC(=O)c1ccc(-c2ncc(C(=O)N(C3CC3)C3CCN(C(=O)OC(C)(C)C)CC3)cn2)cc1` [Example 86, 4-{Cyclopropyl-[2-(4-ethylcarbamoyl-phenyl)-pyrimidine-5-carbonyl]-amino}-piperidine-1-carboxylic acid tert-butyl ester], 171 nM. In turn, `CC(=O)NCc1ccc(-c2ncc(C(=O)N(C3CC3)C3CCN(C(=O)OC(C)(C)C)CC3)cn2)cc1` [Example 87, 4-({2-[4-(Acetylamino-methyl)-phenyl]-pyrimidine-5-carbonyl}-cyclopropyl-amino)-piperidine-1-carboxylic acid tert-buyl ester] displayed an EC50 of 443 nM. Under `CC(C)(C)OC(=O)N1CCC(N(C(=O)c2cnc(-c3ccc(S(N)(=O)=O)cc3)nc2)C2CC2)CC1` [Example 88, 4-{Cyclopropyl-[2-(4-sulfamoyl-phenyl)-pyrimidine-5-carbonyl]-amino}-piperidine-1-carboxylic acid tert-butyl ester] stands 349 nM; under `Cc1ccc(-c2ncc(C(=O)N(C3CC3)C3CCN(C(=O)OC(C)(C)C)CC3)cn2)cn1` [Example 89, 4-{Cyclopropyl-[2-(6-methyl-pyridin-3-yl)-pyrimidine-5-carbonyl]-amino}-piperidine-1-carboxylic acid tert-butyl ester], 240 nM; under `CC(C)(C)OC(=O)N1CCC(N(C(=O)c2cnc(-c3ccc(C#N)c(F)c3)nc2)C2CC2)CC1` [Example 90, 4-{[2-(4-Cyano-3-fluoro-phenyl)-pyrimidine-5-carbonyl]-cyclopropyl-amino}-piperidine-1-carboxylic acid tert-butyl ester], 8 nM. Then `CNS(=O)(=O)c1ccc(-c2ncc(C(=O)N(C3CC3)C3CCN(C(=O)OC(C)(C)C)CC3)cn2)cc1` [Example 92, 4-{Cyclopropyl-[2-(4-methanesulfamoyl-phenyl)-pyrimidine-5-carbonyl]-amino}-piperidine-1-carboxylic acid tert-butyl ester], with 151 nM; and `CN(C)c1ccc(-c2ncc(C(=O)N(C3CC3)C3CCN(C(=O)OC(C)(C)C)CC3)cn2)cn1` [Example 93, 4-{Cyclopropyl-[2-(6-dimethylamino-pyridin-3-yl)-pyrimidine-5-carbonyl]-amino}-piperidine-1-carboxylic acid tert-butyl ester], with 209 nM. Under `CC(C)(C)OC(=O)N1CCC(N(C(=O)c2cnc(-n3cnc(CO)c3)nc2)C2CC2)CC1` [Example 94, 4-{Cyclopropyl-[2-(4-hydroxymethyl-imidazol-1-yl)-pyrimidine-5-carbonyl]-amino}-piperidine-1-carboxylic acid tert-butyl ester] stands 349 nM; under `Cc1cnn(-c2ncc(C(=O)N(C3CC3)C3CCN(C(=O)OC(C)(C)C)CC3)cn2)c1` [Example 95, 4-{Cyclopropyl-[2-(4-methyl-pyrazol-1-yl)-pyrimidine-5-carbonyl]-amino}-piperidine-1-carboxylic acid tert-butyl ester], 229 nM; under `Cc1ccn(-c2ncc(C(=O)N(C3CC3)C3CCN(C(=O)OC(C)(C)C)CC3)cn2)n1` [Example 96, 4-{Cyclopropyl-[2-(3-methyl-pyrazol-1-yl)-pyrimidine-5-carbonyl]-amino}-piperidine-1-carboxylic acid tert-butyl ester], 192 nM. Regarding `CCc1nccn1-c1ncc(C(=O)N(C2CC2)C2CCN(C(=O)OC(C)(C)C)CC2)cn1` [Example 97, 4-{Cyclopropyl-[2-(2-ethyl-imidazol-1-yl)-pyrimidine-5-carbonyl]-amino}-piperidine-1-carboxylic acid tert-butyl ester], the EC50 amounted to 59 nM. Then `Cc1cn(-c2ncc(C(=O)N(C3CC3)C3CCN(C(=O)OC(C)(C)C)CC3)cn2)c(C)n1` [Example 98, 4-{Cyclopropyl-[2-(2,4-dimethyl-imidazol-1-yl)-pyrimidine-5-carbonyl]-amino}-piperidine-1-carboxylic acid tert-butyl ester], with 71 nM; and `Cc1nccn1-c1ncc(C(=O)N(C2CC2)C2CCN(C(=O)OC(C)(C)C)CC2)cn1` [Example 99, 4-{Cyclopropyl-[2-(2-methyl-imidazol-1-yl)-pyimidine-5-carbonyl]-amino}-piperidine-1-carboxylic acid tert-butyl ester], with 37 nM; and `CC(C)(C)OC(=O)N1CCC(N(C(=O)c2cnc(-n3cnnc3)nc2)C2CC2)CC1` [Example 100, 4-[Cyclopropyl-(2-[1,2,4]triazol-4-yl-pyrimidine-5-carbonyl)-amino]-piperidine-1-carboxylic acid tert-butyl ester], with 810 nM.

Source of the values: patent US20140045823A1 (Neurocrine Biosciences, Inc., priority 2012, published 2014).
